From PubChem BioAssay AID248 (DTP/NCI, 2004)
Values joined by “and” are separate entries in the source; they are usually repeats but may differ in a detail not shown here. Identical values can stand only once. Toxic doses and inconclusive results are not listed. No stated cut-off is given here; in the data, active means T/C of 150% or more; inactive means T/C below 125%.

Tested on: L1210 leukemia ip in BDF1 mice, survival T/C
Assay: NCI In Vivo Anticancer Drug Screen. Data for tumor model L1210 Leukemia (intraperitoneal) in B6D2F1 (BDF1) mice
Conditions: endpoint: mean survival time, higher = longer survival
How it was run: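 Transplantable tumor model; survival measured in treated vs vehicle control mice. Value = treated/control.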

[1] = dose: 100.0 mg/kg/injection, schedule: Q01DX001 (ip), vehicle: carboxymethylcellulose (CMC)
[2] = dose: 200.0 mg/kg/injection, schedule: Q01DX001 (ip), vehicle: carboxymethylcellulose (CMC)
[3] = dose: 400.0 mg/kg/injection, schedule: Q01DX001 (ip), vehicle: carboxymethylcellulose (CMC)
[4] = dose: 50.0 mg/kg/injection, schedule: Q01DX001 (ip), vehicle: saline
[5] = dose: 100.0 mg/kg/injection, schedule: Q01DX001 (ip), vehicle: saline
[6] = dose: 200.0 mg/kg/injection, schedule: Q01DX001 (ip), vehicle: saline
[7] = dose: 400.0 mg/kg/injection, schedule: Q01DX001 (ip), vehicle: saline
[8] = dose: 75.0 mg/kg/injection, schedule: Q01DX001 (ip), vehicle: saline
[9] = dose: 75.0 mg/kg/injection, schedule: Q04DX003 (ip), vehicle: saline
[10] = dose: 150.0 mg/kg/injection, schedule: Q01DX001 (ip), vehicle: saline
[11] = dose: 150.0 mg/kg/injection, schedule: Q04DX003 (ip), vehicle: saline
[12] = dose: 300.0 mg/kg/injection, schedule: Q01DX001 (ip), vehicle: saline
[13] = dose: 300.0 mg/kg/injection, schedule: Q04DX003 (ip), vehicle: saline

Measured: T/C

CC(Cc1ccccc1)NC(=O)NCCCl (stereo unspecified)
inactive: dose: 12.5 mg/kg/injection, schedule: Q01DX009 (ip), vehicle: Klucel (hydroxypropylcellulose) (HPC) 101 % of control | dose: 25.0 mg/kg/injection, schedule: Q01DX009 (ip), vehicle: Klucel (hydroxypropylcellulose) (HPC) 101 % of control | dose: 50.0 mg/kg/injection, schedule: Q01DX009 (ip), vehicle: Klucel (hydroxypropylcellulose) (HPC) 90 % of control | dose: 100.0 mg/kg/injection, schedule: Q01DX001 (ip), vehicle: Klucel (hydroxypropylcellulose) (HPC) 92 % of control | dose: 100.0 mg/kg/injection, schedule: Q04DX003 (ip), vehicle: Klucel (hydroxypropylcellulose) (HPC) 106 % of control | dose: 200.0 mg/kg/injection, schedule: Q01DX001 (ip), vehicle: Klucel (hydroxypropylcellulose) (HPC) 90 % of control | dose: 200.0 mg/kg/injection, schedule: Q04DX003 (ip), vehicle: Klucel (hydroxypropylcellulose) (HPC) 117 % of control | dose: 400.0 mg/kg/injection, schedule: Q01DX001 (ip), vehicle: Klucel (hydroxypropylcellulose) (HPC) 94 % of control

CCOC(=O)C1=C(C)NC(C)=C(C(=O)OCC)C1C
inactive: [1] 111 % of control | [2] 116 % of control | [3] 106 % of control

CCCCS(=O)(=O)N(CC)CC
inactive: dose: 100.0 mg/kg/injection, schedule: Q01DX009 (ip), vehicle: carboxymethylcellulose (CMC) 109 % of control | dose: 200.0 mg/kg/injection, schedule: Q01DX009 (ip), vehicle: carboxymethylcellulose (CMC) 96 % of control

O=C(CCCC(=O)N/N=C/c1ccc(O)c(O)c1)N/N=C\c1ccc(O)c(O)c1
inactive: dose: 50.0 mg/kg/injection, schedule: Q01DX001 (ip), vehicle: other 104 % of control | dose: 100.0 mg/kg/injection, schedule: Q01DX001 (ip), vehicle: other 93 % of control | dose: 200.0 mg/kg/injection, schedule: Q01DX001 (ip), vehicle: other 98 % of control | dose: 400.0 mg/kg/injection, schedule: Q01DX001 (ip), vehicle: other 91 % of control

N#C[S-].N#C[S-].N#C[S-].N#C[S-].[Co]
inactive: dose: 5.0 mg/kg/injection, schedule: Q01DX001 (ip), vehicle: saline 96 % of control | dose: 10.0 mg/kg/injection, schedule: Q01DX001 (ip), vehicle: saline 104 % of control | dose: 20.0 mg/kg/injection, schedule: Q01DX001 (ip), vehicle: saline 106 % of control

O=C1COc2ccccc21
inactive: [4] 97 % of control | [5] 100 % of control | [6] 100 % of control | [7] 100 % of control

C/C(=N\N=C(/C)c1cccc(N)c1)c1cccc(N)c1
inactive: [6] 87 % of control | [7] 87 % of control

Cc1ccc(S(=O)(=O)Oc2ccc(N(CC(=O)O)S(=O)(=O)c3ccc(C)cc3)cc2)cc1
inactive: dose: 100.0 mg/kg/injection, schedule: Q01DX001 (ip), vehicle: water 98 % of control | dose: 100.0 mg/kg/injection, schedule: Q04DX003 (ip), vehicle: water 94 % of control | dose: 200.0 mg/kg/injection, schedule: Q01DX001 (ip), vehicle: water 96 % of control | dose: 200.0 mg/kg/injection, schedule: Q04DX003 (ip), vehicle: water 88 % of control | dose: 400.0 mg/kg/injection, schedule: Q01DX001 (ip), vehicle: water 97 % of control | dose: 400.0 mg/kg/injection, schedule: Q04DX003 (ip), vehicle: water 96 % of control

CCOC(=O)CCC(NC(=O)c1ccc(N(C)S(=O)(=O)c2ccc(C)cc2)c(F)c1)C(=O)OCC (stereo unspecified)
inactive: [8] 100 % of control | [9] 103 % of control | [10] 98 % of control | [11] 95 % of control | [12] 96 % of control | [13] 103 % of control

O=C1/C(=C/c2ccccc2)CCC2C1CCCC21OCCO1 (stereo unspecified)
inactive: [8] 97 % of control | [9] 100 % of control | [10] 95 % of control | [11] 103 % of control | [12] 107 % of control | [13] 101 % of control

NC(N)=NNC=NCCc1ccc(O)cc1
inactive: dose: 15.0 mg/kg/injection, schedule: Q01DX Z (ip), vehicle: carboxymethylcellulose (CMC) 107 % of control | dose: 30.0 mg/kg/injection, schedule: Q01DX Z (ip), vehicle: carboxymethylcellulose (CMC) 98 % of control | dose: 60.0 mg/kg/injection, schedule: Q01DX Z (ip), vehicle: carboxymethylcellulose (CMC) 101 % of control | dose: 120.0 mg/kg/injection, schedule: Q01DX Z (ip), vehicle: carboxymethylcellulose (CMC) 103 % of control

Clc1ccc([I+]c2ccc(Cl)c(Cl)c2)cc1Cl
inactive: dose: 4.0 mg/kg/injection, schedule: Q01DX015 (ip), vehicle: carboxymethylcellulose (CMC) 98 % of control | dose: 8.0 mg/kg/injection, schedule: Q01DX015 (ip), vehicle: carboxymethylcellulose (CMC) 96 % of control | dose: 16.0 mg/kg/injection, schedule: Q01DX015 (ip), vehicle: carboxymethylcellulose (CMC) 87 % of control | dose: 32.0 mg/kg/injection, schedule: Q01DX015 (ip), vehicle: carboxymethylcellulose (CMC) 96 % of control | [1] 95 % of control | [2] 106 % of control | [3] 111 % of control

C=C(C)CCc1ccccc1
inactive: [4] 102 % of control | [5] 104 % of control | [6] 96 % of control

CC12CCC(OC3OC(CO)C(O)C(O)C3O)CC1CCC1C2CCC2(C)C(C3=CC(=O)OC3)CCC12O (stereo unspecified)
inactive: dose: 10.0 mg/kg/injection, schedule: Q01DX009 (ip), vehicle: saline 101 % of control | dose: 20.0 mg/kg/injection, schedule: Q01DX009 (ip), vehicle: saline 96 % of control | dose: 40.0 mg/kg/injection, schedule: Q01DX009 (ip), vehicle: saline 102 % of control

CCOC(=O)C(C(=O)OCC)C(C)c1ccc([N+](=O)[O-])cc1 (stereo unspecified)
inactive: dose: 100.0 mg/kg/injection, schedule: Q01DX009 (ip), vehicle: saline with Tween-80 106 % of control | dose: 100.0 mg/kg/injection, schedule: Q04DX002 (ip), vehicle: saline with Tween-80 100 % of control | dose: 200.0 mg/kg/injection, schedule: Q01DX009 (ip), vehicle: saline with Tween-80 106 % of control | dose: 200.0 mg/kg/injection, schedule: Q04DX002 (ip), vehicle: saline with Tween-80 103 % of control | dose: 400.0 mg/kg/injection, schedule: Q01DX009 (ip), vehicle: saline with Tween-80 113 % of control | dose: 400.0 mg/kg/injection, schedule: Q04DX002 (ip), vehicle: saline with Tween-80 92 % of control

O=C(/C(=C\c1ccccc1)CBr)c1ccc(Br)cc1
inactive: dose: 3.12 mg/kg/injection, schedule: Q01DX009 (ip), vehicle: saline 100 % of control | dose: 6.25 mg/kg/injection, schedule: Q01DX009 (ip), vehicle: saline 100 % of control | dose: 12.5 mg/kg/injection, schedule: Q01DX009 (ip), vehicle: saline 94 % of control and 89 % of control | dose: 12.5 mg/kg/injection, schedule: Q04DX003 (ip), vehicle: saline with Tween-80 96 % of control | dose: 25.0 mg/kg/injection, schedule: Q04DX003 (ip), vehicle: saline with Tween-80 93 % of control | dose: 50.0 mg/kg/injection, schedule: Q04DX003 (ip), vehicle: saline with Tween-80 94 % of control

CC12CCC3C4CCC(=O)C(O)=C4CCC3C1CCC2OC(=O)CCC1CCCC1 (stereo unspecified)
inactive: dose: 100.0 mg/kg/injection, schedule: Q01DX009 (sc), vehicle: steriod suspending solution 96 % of control | dose: 200.0 mg/kg/injection, schedule: Q01DX009 (sc), vehicle: steriod suspending solution 107 % of control | dose: 400.0 mg/kg/injection, schedule: Q01DX009 (sc), vehicle: steriod suspending solution 100 % of control
